Experimental data as given in US20060009445A1, “Tumor-inhibiting anellated azepinone derivatives” (Faustus Forschungs CIE. Translational Cancer Research GmbH, priority 2002, published 2006).

Columns and labels:
Assay type in all cases: cell-based
CCRF-CEM = assay: XTT assay, tumor-inhibiting effect in vitro, CCRF-CEM; details: Homo sapiens, incubation period 48 hours
Protocol: (§1) The tumor-inhibiting effect was tested in vitro in the XTT assay with an example of various cell lines. The incubation period was 48 hours (IC50 values in μM).

K-562 = assay: XTT assay, tumor-inhibiting effect in vitro, K-562; details: Homo sapiens, K562, incubation period 48 hours
Protocol: as §1

MOLT-4 = assay: XTT assay, tumor-inhibiting effect in vitro, MOLT-4; details: Homo sapiens, incubation period 48 hours
Protocol: as §1

COLO 205 = assay: XTT assay, tumor-inhibiting effect in vitro, COLO 205; details: Homo sapiens, incubation period 48 hours
Protocol: as §1

HCT-15 = assay: XTT assay, tumor-inhibiting effect in vitro, HCT-15; details: Homo sapiens, incubation period 48 hours
Protocol: as §1

HCT-116 = assay: XTT assay, tumor-inhibiting effect in vitro, HCT-116; details: Homo sapiens, incubation period 48 hours
Protocol: as §1

HT-29 = assay: XTT assay, tumor-inhibiting effect in vitro, HT-29; details: Homo sapiens, incubation period 48 hours
Protocol: as §1

SW-620 = assay: XTT assay, tumor-inhibiting effect in vitro, SW-620; details: Homo sapiens, incubation period 48 hours
Protocol: as §1

MCF-7 = assay: XTT assay, tumor-inhibiting effect in vitro, MCF-7; details: Homo sapiens, MCF7, incubation period 48 hours
Protocol: as §1

OVCAR 3 = assay: XTT assay, tumor-inhibiting effect in vitro, OVCAR 3; details: Homo sapiens, incubation period 48 hours
Protocol: as §1

NCI-H460 = assay: XTT assay, tumor-inhibiting effect in vitro, NCI-H460; details: Homo sapiens, incubation period 48 hours
Protocol: as §1

NCI-H226 = assay: XTT assay, tumor-inhibiting effect in vitro, NCI-H226; details: Homo sapiens, incubation period 48 hours
Protocol: as §1

SK-MEL-5 = assay: XTT assay, tumor-inhibiting effect in vitro, SK-MEL-5; details: Homo sapiens, incubation period 48 hours
Protocol: as §1

SK-MEL-28 = assay: XTT assay, tumor-inhibiting effect in vitro, SK-MEL-28; details: Homo sapiens, incubation period 48 hours
Protocol: as §1

| IC50 (CCRF-CEM) | IC50 (K-562) | IC50 (MOLT-4) | IC50 (COLO 205) | IC50 (HCT-15) | IC50 (HCT-116) | IC50 (HT-29) | IC50 (SW-620) | IC50 (MCF-7) | IC50 (OVCAR 3) | IC50 (NCI-H460) | IC50 (NCI-H226) | IC50 (SK-MEL-5) | IC50 (SK-MEL-28) | SMILES |
| --- | --- | --- | --- | --- | --- | --- | --- | --- | --- | --- | --- | --- | --- | --- |
| 5.47 µM | 48.4 µM | 2.63 µM | 13.3 µM | 24.1 µM | 26.4 µM | 9.46 µM | 22.8 µM | 20.7 µM | 2.59 µM | 14.4 µM | 30.1 µM | 19.4 µM | 18.5 µM | NC(=S)N/N=C1\Cc2c([nH]c3ccc(Br)cc23)-c2ccccc2N1 [KP 1428] |
| 1.66 µM | 1.56 µM | 2.9 µM | 5.25 µM | 0.74 µM | 2.56 µM | 6.61 µM | 3.83 µM | 10.4 µM | 6.82 µM | 9.51 µM | 7.19 µM | 10 µM | 7.98 µM | Oc1ccccc1/C=N/N=C1\Cc2c([nH]c3ccc(Br)cc23)-c2ccccc2N1 [KP1437] |
